Reference: US11123340B2, “Small-molecule UT-A-selective urea transport inhibitors” (The Regents of the University of California, priority 2014, dated 2021)

Columns and labels:
rat UT-A1 = molecular target: T1, rat UT-A1 (Rattus norvegicus, UniProt Q62668); assay: UT-A1 inhibition, fluorescence plate reader assay in MDCK cells expressing UT-A1, AQP1 and YFP-H148Q/V163S; format: cell-based
T1 construct: expressed in transfected cells; host or cells: MDCK cells stably co-expressing rat UT-A1, human AQP1 and YFP-H148Q/V163S
T1 sequence (Q62668 1-929): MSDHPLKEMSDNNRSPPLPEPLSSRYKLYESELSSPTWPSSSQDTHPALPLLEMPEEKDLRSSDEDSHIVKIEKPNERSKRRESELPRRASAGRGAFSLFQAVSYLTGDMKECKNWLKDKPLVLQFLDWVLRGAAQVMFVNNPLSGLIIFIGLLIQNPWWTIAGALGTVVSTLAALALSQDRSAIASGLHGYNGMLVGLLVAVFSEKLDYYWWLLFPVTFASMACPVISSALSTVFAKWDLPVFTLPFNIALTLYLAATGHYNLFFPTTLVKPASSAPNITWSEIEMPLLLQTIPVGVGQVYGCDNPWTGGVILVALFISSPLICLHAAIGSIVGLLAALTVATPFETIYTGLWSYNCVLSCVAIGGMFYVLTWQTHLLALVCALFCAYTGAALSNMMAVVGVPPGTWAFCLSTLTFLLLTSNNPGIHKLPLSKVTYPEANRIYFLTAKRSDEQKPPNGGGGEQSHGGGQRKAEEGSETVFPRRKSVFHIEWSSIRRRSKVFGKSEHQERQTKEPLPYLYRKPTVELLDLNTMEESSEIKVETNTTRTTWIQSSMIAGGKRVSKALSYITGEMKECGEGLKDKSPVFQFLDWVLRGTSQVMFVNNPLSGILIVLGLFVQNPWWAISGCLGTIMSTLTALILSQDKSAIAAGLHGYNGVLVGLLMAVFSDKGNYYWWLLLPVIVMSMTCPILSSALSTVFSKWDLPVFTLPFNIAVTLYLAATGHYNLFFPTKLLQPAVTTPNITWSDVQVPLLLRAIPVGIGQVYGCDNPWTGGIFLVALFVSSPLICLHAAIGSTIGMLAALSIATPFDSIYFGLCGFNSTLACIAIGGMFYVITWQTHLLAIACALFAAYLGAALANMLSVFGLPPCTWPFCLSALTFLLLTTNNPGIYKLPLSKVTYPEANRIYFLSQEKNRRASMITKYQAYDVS
Description: Primary screening was done using a collection of 50,000 chemically diverse, drug-like compounds from ChemDiv (San Diego, Calif.). For analysis of structure-activity relationships, >300 commercially available analogs (ChemDiv and Asinex, Winston-Salem, N.C.) were tested. Cells were plated on black 96-well Costar microplates with clear plastic bottoms (Corning, Corning, N.Y.) at 15,000 cells/well and cultured for 24 h at 37° C. before assay. Microplates containing cultured cells were washed twice with PBS and 150 μL of test compound (25 μM final) in PBS was added. Eighty wells contained test compounds, and the first and last columns of each plate contained negative (dimethyl sulfoxide, DMSO) and positive (0.35 mM phloretin) controls. The assays were done on a plate reader (Tecan Trading AG, Switzerland) equipped with a custom YFP filter set. Each assay consisted of a continuous 15-s read (5 Hz) in which 50 μL of 3.2 M urea in PBS was injected at 1 s (at 130 μL/s) to give a 800 mM final urea gradient.
MDCK cells stably expressing rat UT-A1 (see, e.g., Frohlich et al. (2006) Am J Physiol Cell Physiol. 291, C600-D606), YFP-H148Q/V163 S (see, e.g., Galietta, et al. (2001) FEBS Lett. 499, 220-224) and human AQP1, as described previously (see, e.g., Esteva-Font et al. (2013) Chem Biol. 20, 1235-1244), were grown in Dulbecco's modified Eagle medium (DMEM) containing 10% fetal bovine serum (FBS), penicillin G (100 U/mL), streptomycin (100 μg/mL), zeocin (500 μg/mL), geneticin (600 μg/mL) and Hygromycin (500 μg/mL) at 37° C., 5% CO2. A Cell Clone with bright YFP fluorescence and relatively low AQP1 expression was used for the screen to maximize dynamic range.
In order to identify UT-A inhibitors suitable for testing in rats, a collection of 50,000 synthetic small molecules was screened. As diagrammed in FIG. 1A (top), the fluorescence cell-based screen utilized MDCK cells stably rat expressing UT-A1, water channel AQP1 and the cytoplasmic chloride-sensing fluorescent protein YFP-H148Q/V163S. As described and validated previously (see, e.g., Esteva-Font et al. (2013) Chem Biol. 20, 1235-1244), extracellular addition of urea results in osmotic water efflux and cell shrinking, which increases intracellular chloride concentration and reduces YFP fluorescence. Urea entry results in increasing YFP fluorescence as cells re-swell. Inhibitors of UT-A1 urea transport produce a lesser reduction in fluorescence and slowed recovery.

rat UT-B = molecular target: T2, rat UT-B (Rattus norvegicus, UniProt P97689); assay: UT-B inhibition, erythrocyte lysis assay; format: cell-based; conditions: for IC50: rat erythrocytes
T2 construct: endogenous in cells; host or cells: rat erythrocytes (whole rat blood)
T2 sequence (P97689 1-384): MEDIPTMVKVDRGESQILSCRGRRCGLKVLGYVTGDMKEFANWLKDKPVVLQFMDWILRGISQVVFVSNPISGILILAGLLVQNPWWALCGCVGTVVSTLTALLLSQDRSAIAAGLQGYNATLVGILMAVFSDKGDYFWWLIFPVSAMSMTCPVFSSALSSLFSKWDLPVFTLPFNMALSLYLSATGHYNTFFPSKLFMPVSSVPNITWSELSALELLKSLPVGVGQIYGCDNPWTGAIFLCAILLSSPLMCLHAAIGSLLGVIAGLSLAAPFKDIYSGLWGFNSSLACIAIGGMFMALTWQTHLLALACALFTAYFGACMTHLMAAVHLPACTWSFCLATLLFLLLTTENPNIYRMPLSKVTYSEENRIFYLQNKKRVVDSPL
Description: As described (see, e.g., Levin et al. (2007) FASEB J. 21, 551-563), whole rat blood was diluted to a hematocrit of ˜1.5% in PBS containing 1.25 M acetamide and 5 mM glucose. Erythrocyte suspensions (100 μL) were added to 96-well round-bottom microplates and test compounds (1 μL) were added. After 15 min incubation, 20 μL of the erythrocyte suspension was added rapidly to each well containing 180 μL of PBS. Following vigorous mixing, erythrocyte lysis was quantified by absorbance at 710 nm. Non-lysed controls (isosmolar buffer) and lysed controls (0.7 mM phloretin) were added in each plate as negative and positive controls, respectively. Percentage erythrocyte lysis was computed as: % lysis=100% (Aneg−Atest)/(Aneg−Apos), where A is absorbance at 710 nm.
Inhibitor selectivity for rat UT-A1 versus UT-B was investigated using an erythrocyte lysis assay of rat UT-B urea transport, which involved measurement of hypotonic lysis (by near-infrared absorbance) of acetamide-loaded erythrocytes following rapid dilution into acetamide-free buffer.

UT = conditions: literature; cited from earlier work

| Structure (SMILES) | IC50 (rat UT-A1) [µM] | selectivity for UT-A1 versus UT-B (rat UT-B; rat UT-A1 versus rat UT-B) | IC50 (rat UT-B) [µM] | concentration exhibiting activity (UT) [mM] |
| --- | --- | --- | --- | --- |
| CC(=O)Nc1ccc(-c2csc(-c3ccccc3)n2)cc1 [UTA1inh-E01] | 3 | high selectivity |  |  |
| CC(=O)Nc1ccc(-c2csc(C)n2)cc1 [UTA1inh-E03] | > 50 |  | > 50 |  |
| Cc1ccc(C)c(S(=O)(=O)Nc2cccc(N3CCCS3(=O)=O)c2)c1 [UTA1inh-F02] | 15 |  | > 75 |  |
| COc1cc(C)c(C)cc1S(=O)(=O)Nc1cccc(N2CCCS2(=O)=O)c1 [UTA1inh-F05] | 3 |  | 20 |  |
| Cc1ccc(C)c(S(=O)(=O)Nc2cc(N3CCCS3(=O)=O)ccc2C)c1 [UTA1inh-F06] | 10 |  | > 75 |  |
| COc1ccc(F)cc1S(=O)(=O)Nc1cc(N2CCCS2(=O)=O)ccc1C [UTA1inh-F07] | 15 |  | > 75 |  |
| COc1ccc(N2CCCS2(=O)=O)cc1NS(=O)(=O)c1cc(C)ccc1OC [UTA1inh-F09] | 1 |  | 8 |  |
| COc1ccc(OC)c(S(=O)(=O)Nc2ccc(Cl)c(N3CCCS3(=O)=O)c2)c1 [UTA1inh-F12] | 5 |  |  |  |
| COc1cc(C)c(C)cc1S(=O)(=O)Nc1ccc(Cl)c(N2CCCS2(=O)=O)c1 [UTA1inh-F13] | 8 |  |  |  |
| O=C(CCc1ccc(O)cc1)c1c(O)cc(O)cc1O [phloretin] |  |  |  | > 0.5 |

More lines, in order of falling IC50 (rat UT-A1), values ahead:

| IC50 (rat UT-A1) [µM] | selectivity for UT-A1 versus UT-B (rat UT-B; rat UT-A1 versus rat UT-B) | IC50 (rat UT-B) [µM] | Structure (SMILES) | concentration exhibiting activity (UT) [mM] |
| --- | --- | --- | --- | --- |
| 30 |  | 20 | COc1cc(C)c(C)cc1S(=O)(=O)Nc1cc(N2CCCS2(=O)=O)ccc1C [UTA1inh-F08] |  |
| 5 |  | > 75 | COc1ccc(F)cc1S(=O)(=O)Nc1cccc(N2CCCS2(=O)=O)c1 [UTA1inh-F04] |  |
| 5 |  | > 75 | COc1ccc(N2CCCS2(=O)=O)cc1NS(=O)(=O)c1cc(C)ccc1C [UTA1inh-F10] |  |
| 3 |  | 15 | Cc1cc(C)c(S(=O)(=O)Nc2cccc(N3CCCS3(=O)=O)c2)cc1C [UTA1inh-F03] |  |
| 1 |  | 6 | COc1ccc(C)cc1S(=O)(=O)Nc1cccc(N2CCCS2(=O)=O)c1 [UTA1inh-F01] |  |
